Test results reported in patent US11795162B2, “Modulators of the estrogen-related receptor” (Saint Louis University, priority 2017, dated 2023).

How the values were obtained:
ERRγ = target: T1, ERRγ (Homo sapiens, UniProt P62508); experiment: Full-length ERRγ luciferase reporter assay (ERRE reporter, HEK293 cells); type: cell-based; conditions: HEK293 cells transfected with ERRE reporter and pcDNA3.1 ERRγ, 24 hours treatment
T1 construct: Data for selected compounds in the full-length; expressed in transfected cells; host or cells: HEK293
T1 sequence (P62508 1-458): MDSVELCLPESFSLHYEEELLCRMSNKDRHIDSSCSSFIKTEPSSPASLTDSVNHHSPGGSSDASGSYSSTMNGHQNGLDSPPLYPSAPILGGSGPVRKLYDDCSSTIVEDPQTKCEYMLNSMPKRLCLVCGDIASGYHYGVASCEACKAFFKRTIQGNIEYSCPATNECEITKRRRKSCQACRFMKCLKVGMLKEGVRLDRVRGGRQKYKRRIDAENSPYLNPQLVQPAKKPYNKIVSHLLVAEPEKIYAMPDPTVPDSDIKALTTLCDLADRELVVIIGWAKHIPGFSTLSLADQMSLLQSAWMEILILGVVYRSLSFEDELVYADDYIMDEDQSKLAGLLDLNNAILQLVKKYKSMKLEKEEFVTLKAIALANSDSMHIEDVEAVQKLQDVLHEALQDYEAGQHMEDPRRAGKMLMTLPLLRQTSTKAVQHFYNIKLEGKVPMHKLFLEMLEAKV
Experimental: Luciferase Assay. HEK293 cells were maintained in Dulbecco's modified Eagles medium (DMEM) supplemented with 10% fetal bovine serum at 37° C. under 5% CO2. […] Cells were transfected with ERRE reporter construct and pcDNA3.1 ERRγ. 24 hour post-transfection, the cells were treated with vehicle or compound for 24 hours.

ERR gamma protein = target: T2, ERR gamma protein (Homo sapiens, UniProt P62508); experiment: Protein thermal shift assay; type: binding; conditions: compound at 20 μM; ERR gamma protein 0.1 mg/mL, SYPRO-Orange; read-out: T.S. (thermal shift) range
T2 sequence (P62508 1-458): T1 sequence (P62508 1-458)
Experimental: Six replicate reactions were set up and run in Applied Biosystems Quantstudio 7 Real-Time PCR system. Data were collected at a ramp rate of 0.05° C./s from 24° C. through 95° C. and analyzed using Protein Thermal Shift Software 1.3.

EC50 (ERRγ) | ΔTm at 20 µM (ERR gamma protein) | SMILES
89 nM |  | O=C(Nc1cccc(F)c1)c1ccc(-c2ccc(B(O)O)cc2)s1 [Compound 8, (4-(5-((3-fluorophenyl)carbamoyl)thiophen-2-yl)phenyl)boronic acid]
563 nM | 2 to 4 °C | O=C(Nc1cccc(B(O)O)c1)c1ccc(-c2cccc(F)c2)s1 [Compound 50]
1010 nM |  | O=C(Nc1cccc(O)c1)c1ccc(-c2ccsc2)s1 [Compound 74]
2680 nM | 2 to 4 °C | O=C(Nc1ccc(O)cc1)c1ccc(-c2ccc(C(F)(F)F)cc2)s1 [Compound 114]
734 nM | 2 to 4 °C | O=C(Nc1ccc2ccccc2c1)c1cc(-c2ccc(O)cc2)[nH]n1 [Compound 122]
 | 2 to 4 °C | O=C(Nc1ccc2ccccc2c1)c1cc(-c2cccc(O)c2)[nH]n1 [Compound 123]
 | 2 to 4 °C | O=C(Nc1ccc(Cl)cc1)c1cc(-c2ccc(O)cc2)[nH]n1 [Compound 124]
> 25000 nM | 2 to 4 °C | O=C(Nc1ccc(Cl)cc1)c1cc(-c2cccc(O)c2)[nH]n1 [Compound 125]
 | 0 to 2 °C | Cc1ccc(NC(=O)c2cc(-c3cccc(O)c3)[nH]n2)cc1 [Compound 126]
 | 2 to 4 °C | Cc1ccc(NC(=O)c2cc(-c3ccc(O)cc3)[nH]n2)cc1 [Compound 127]
 | 0 to 2 °C | CC(C)(C)c1ccc(NC(=O)c2cc(-c3cccc(O)c3)[nH]n2)cc1 [Compound 128]
 | 0 to 2 °C | CC(C)(C)c1ccc(NC(=O)c2cc(-c3ccc(O)cc3)[nH]n2)cc1 [Compound 129]
 | 0 to 2 °C | CC(C)c1ccc(NC(=O)c2cc(-c3cccc(O)c3)[nH]n2)cc1 [Compound 130]
 | 2 to 4 °C | O=C(Nc1ccc(O)cc1)c1cc(-c2ccc(O)cc2)[nH]n1 [Compound 131]
 | > 4 °C | Nc1cccc(NC(=O)c2ccc(-c3ccc(Cl)cc3)s2)c1 [Compound 132]
 | 0 to 2 °C | O=C(Nc1ccc(O)cc1)c1cc(-c2cccc(O)c2)[nH]n1 [Compound 134]
3500 nM |  | O=C(NC1CCC(O)CC1)c1ccc(-c2ccccc2)o1 (centres unmarked) [Compound 135]

EC50 (ERRγ) | ΔTm at 20 µM (ERR gamma protein) | SMILES
 | 0 to 2 °C | O=C(NCc1ccc(Cl)cc1)c1ccc(-c2cccc(O)c2)o1 [Compound 136]
 | 0 to 2 °C | CC(C)c1ccc(-c2ccc(C(=O)Nc3ccccn3)s2)cc1 [Compound 137]
 | 0 to 2 °C | CC(C)c1ccc(-c2ccc(C(=O)Nc3cccnc3)s2)cc1 [Compound 138]
 | 2 to 4 °C | CC(C)c1ccc(-c2ccc(C(=O)Nc3ccncc3)s2)cc1 [Compound 139]
 | 0 to 2 °C | CC(C)c1ccc(-c2ccc(C(=O)Nc3cccc(O)c3)s2)cc1 [Compound 140]
 | 0 to 2 °C | O=C(Nc1cccc(O)c1)c1cnc(-c2ccsc2)o1 [Compound 141]
 | 0 to 2 °C | Nc1cccc(-c2ccc(C(=O)NCc3ccccc3)s2)c1 [Compound 142]
 | 2 to 4 °C | O=C(Nc1ccc(F)cc1)c1ncc(-c2ccc(O)cc2)s1 [Compound 144]
 | 2 to 4 °C | O=C(Nc1ccc(O)cc1)c1ncc(-c2ccsc2)s1 [Compound 146]
 | 0 to 2 °C | O=C(Nc1cccc(O)c1)c1ncc(-c2ccsc2)s1 [Compound 147]
 | 0 to 2 °C | Cc1ccccc1NC(=O)c1ccc(-c2cccc(O)c2)s1 [Compound 149]
 | 0 to 2 °C | O=C(Nc1ccc(F)cc1)c1nc(-c2cccc(O)c2)cs1 [Compound 150]
 | 0 to 2 °C | CC(C)c1cccc(NC(=O)c2ccc(-c3cccc(O)c3)s2)c1 [Compound 151]
 | 0 to 2 °C | O=C(Nc1cccc(O)c1)c1nc(-c2ccsc2)cs1 [Compound 152]
 | 0 to 2 °C | O=C(Nc1ccc(O)cc1)c1nc(-c2ccsc2)cs1 [Compound 153]
 | 0 to 2 °C | O=C(Nc1ccccc1F)c1ccc(-c2cccc(C(=O)C(F)(F)F)c2)s1 [Compound 154]
3400 nM |  | O=C(Nc1cccc(F)c1)c1ccc(-c2ccc(O)cc2)o1 [Compound 157]
